Laboratory results as given in ChEMBL document CHEMBL5321219, “Selective degradation of cellular BRD3 and BRD4-L promoted by PROTAC molecules in six cancer cell lines” (Eur J Med Chem, 2023).
Activity calls are given as the source filed them. The calls are words filed in the database; no cut-off is given here.

How the values were obtained:
[1] = target: T1, Bromodomain-containing protein 3 (Homo sapiens, UniProt Q15059); assay: Binding affinity to recombinant human BRD3 BD2 (306 to 417 residues) assessed as inhibition constant by fluorescence polarization binding assay
MM1.S = assay: Antiproliferative activity against human MM1.S cells assessed as cell growth inhibition measured after 4 days by CellTitre-Glo assay; format: functional, cell-based; details: 96 h
MV4-11 = assay: Antiproliferative activity against human MV4-11 cells assessed as cell growth inhibition measured after 3 days by CellTitre-Glo assay; format: functional, cell-based; details: MV4-11, 72 h
[2] = target: T2, Protein cereblon/Bromodomain-containing protein 3 (Homo sapiens) (UniProt Q15059+Q96SW2); assay: PROTAC activity at CRBN/BRD3 in human MM1.S cells assessed as induction of protein degradation at 2 to 10 nM measured after 24 hrs by Western blot analysis; format: cell-based; details: dose 2-10 nM
[3] = target: Protein cereblon/Bromodomain-containing protein 2 (Homo sapiens) (UniProt P25440+Q96SW2); assay: PROTAC activity at CRBN/BRD2 in human MM1.S cells assessed as induction of protein degradation at 2 to 10 nM measured after 24 hrs by Western blot analysis; format: cell-based; details: dose 2-10 nM
[4] = target: T1, Bromodomain-containing protein 3; assay: Binding affinity to recombinant human BRD3 BD1 (24 to 144 residues) assessed as inhibition constant by fluorescence polarization binding assay
[5] = target: T3, Protein cereblon/Bromodomain-containing protein 4 (Homo sapiens) (UniProt O60885+Q96SW2); assay: PROTAC activity at CRBN/BRD4-L in human MM1.S cells assessed as induction of protein degradation at 2 to 10 nM measured after 24 hrs by Western blot analysis; format: cell-based; details: dose 2-10 nM
[6] = target: T3, Protein cereblon/Bromodomain-containing protein 4 (Homo sapiens); assay: PROTAC activity at CRBN/BRD4-S in human MM1.S cells assessed as induction of protein degradation at 2 to 10 nM measured after 24 hrs by Western blot analysis; format: cell-based; details: dose 2-10 nM
A549 = assay: Antiproliferative activity against human A549 cells assessed as cell growth inhibition measured after 4 days by CCK-8 assay; format: functional, cell-based; details: A549, 96 h
HepG2 = assay: Antiproliferative activity against human HepG2 cells assessed as cell growth inhibition measured after 4 days by CCK-8 assay; format: functional, cell-based; details: HepG2, 96 h
HeLa = assay: Antiproliferative activity against human HeLa cells assessed as cell growth inhibition measured after 4 days by CCK-8 assay; format: functional, cell-based; details: 96 h
HGC-27 = assay: Antiproliferative activity against human HGC-27 cells assessed as cell growth inhibition measured after 4 days by CCK-8 assay; format: functional, cell-based; details: HGC-27, 96 h
MCF7 = assay: Antiproliferative activity against human MCF7 cells assessed as cell growth inhibition measured after 4 days by CCK-8 assay; format: functional, cell-based; details: MCF7, 96 h
[7] = target: T3, Protein cereblon/Bromodomain-containing protein 4 (Homo sapiens); assay: PROTAC activity at CRBN/BRD4-L in human MM1.S cells assessed as induction of protein degradation at 2 nM measured after 24 hrs by Western blot analysis; format: cell-based
[8] = target: T2, Protein cereblon/Bromodomain-containing protein 3 (Homo sapiens); assay: PROTAC activity at CRBN/BRD3 in human MM1.S cells assessed as induction of protein degradation at 2 nM measured after 24 hrs by Western blot analysis; format: cell-based
Mus musculus = assay: In vivo PROTAC activity at CRBN/BRD4-L in SCID mouse xenografted with human MM1.S cells assessed as reduction in BRD4-L protein level in tumor at 100 mg/kg, po measured after 6 hrs by Western blot analysis; format: functional, organism-based

T2 sequence (Q15059 2-726 limits assumed): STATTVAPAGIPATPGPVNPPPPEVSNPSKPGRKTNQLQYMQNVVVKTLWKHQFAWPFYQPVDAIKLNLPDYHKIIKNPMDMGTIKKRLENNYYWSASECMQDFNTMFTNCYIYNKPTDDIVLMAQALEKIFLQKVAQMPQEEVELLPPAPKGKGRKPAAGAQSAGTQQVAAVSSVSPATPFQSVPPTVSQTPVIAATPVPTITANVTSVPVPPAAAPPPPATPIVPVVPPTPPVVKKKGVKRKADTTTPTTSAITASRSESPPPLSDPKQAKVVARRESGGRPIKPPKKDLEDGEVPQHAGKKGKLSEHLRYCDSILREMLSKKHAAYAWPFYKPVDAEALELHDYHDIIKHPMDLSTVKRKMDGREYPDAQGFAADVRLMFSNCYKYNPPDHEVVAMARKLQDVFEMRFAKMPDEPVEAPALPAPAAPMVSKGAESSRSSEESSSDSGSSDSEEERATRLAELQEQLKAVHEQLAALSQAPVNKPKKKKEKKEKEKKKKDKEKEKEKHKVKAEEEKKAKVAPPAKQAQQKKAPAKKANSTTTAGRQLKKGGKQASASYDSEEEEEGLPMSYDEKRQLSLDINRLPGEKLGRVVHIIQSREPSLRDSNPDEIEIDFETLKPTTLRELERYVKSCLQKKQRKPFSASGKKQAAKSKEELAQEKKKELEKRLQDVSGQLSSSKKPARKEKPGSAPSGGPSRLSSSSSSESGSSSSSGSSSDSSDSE
T2 sequence (Q96SW2 whole entry partner): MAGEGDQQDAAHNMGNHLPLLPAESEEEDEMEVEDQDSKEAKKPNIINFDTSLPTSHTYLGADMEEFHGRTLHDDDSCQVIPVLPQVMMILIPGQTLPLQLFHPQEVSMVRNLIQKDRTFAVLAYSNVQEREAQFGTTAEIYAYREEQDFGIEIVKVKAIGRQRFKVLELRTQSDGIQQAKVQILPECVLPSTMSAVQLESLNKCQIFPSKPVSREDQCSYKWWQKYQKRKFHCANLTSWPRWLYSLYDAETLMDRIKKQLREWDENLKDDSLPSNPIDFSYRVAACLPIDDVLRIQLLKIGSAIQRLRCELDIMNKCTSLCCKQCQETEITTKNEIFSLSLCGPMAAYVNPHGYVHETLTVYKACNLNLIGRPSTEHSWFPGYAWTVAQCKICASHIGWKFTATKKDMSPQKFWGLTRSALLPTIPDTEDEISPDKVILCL
T3 sequence (Q96SW2 whole entry, looked up, other chains not shown): as the sequence (Q96SW2 whole entry partner) above
T1 sequence (Q15059 whole entry, the tested form may be a part): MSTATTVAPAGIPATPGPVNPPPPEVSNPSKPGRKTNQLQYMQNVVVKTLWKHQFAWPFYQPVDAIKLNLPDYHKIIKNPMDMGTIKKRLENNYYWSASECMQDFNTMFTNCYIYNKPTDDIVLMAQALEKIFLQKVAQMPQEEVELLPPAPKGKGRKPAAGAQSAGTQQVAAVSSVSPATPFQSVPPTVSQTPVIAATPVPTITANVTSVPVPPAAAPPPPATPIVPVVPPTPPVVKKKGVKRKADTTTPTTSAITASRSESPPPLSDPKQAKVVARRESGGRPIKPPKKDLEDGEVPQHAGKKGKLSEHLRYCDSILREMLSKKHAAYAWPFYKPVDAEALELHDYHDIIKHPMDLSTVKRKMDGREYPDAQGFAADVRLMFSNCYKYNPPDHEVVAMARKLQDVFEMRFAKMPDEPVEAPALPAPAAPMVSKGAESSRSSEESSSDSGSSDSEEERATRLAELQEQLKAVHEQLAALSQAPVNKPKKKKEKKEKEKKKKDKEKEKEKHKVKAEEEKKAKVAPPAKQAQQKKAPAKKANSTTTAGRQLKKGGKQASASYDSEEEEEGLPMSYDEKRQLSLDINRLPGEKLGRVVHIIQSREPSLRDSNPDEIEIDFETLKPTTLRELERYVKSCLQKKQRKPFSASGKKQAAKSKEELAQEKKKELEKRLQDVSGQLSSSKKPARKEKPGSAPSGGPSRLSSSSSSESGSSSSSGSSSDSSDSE
Sequence of Protein cereblon/Bromodomain-containing protein 2 (Homo sapiens) (P25440 whole entry, looked up, the tested form may be a part): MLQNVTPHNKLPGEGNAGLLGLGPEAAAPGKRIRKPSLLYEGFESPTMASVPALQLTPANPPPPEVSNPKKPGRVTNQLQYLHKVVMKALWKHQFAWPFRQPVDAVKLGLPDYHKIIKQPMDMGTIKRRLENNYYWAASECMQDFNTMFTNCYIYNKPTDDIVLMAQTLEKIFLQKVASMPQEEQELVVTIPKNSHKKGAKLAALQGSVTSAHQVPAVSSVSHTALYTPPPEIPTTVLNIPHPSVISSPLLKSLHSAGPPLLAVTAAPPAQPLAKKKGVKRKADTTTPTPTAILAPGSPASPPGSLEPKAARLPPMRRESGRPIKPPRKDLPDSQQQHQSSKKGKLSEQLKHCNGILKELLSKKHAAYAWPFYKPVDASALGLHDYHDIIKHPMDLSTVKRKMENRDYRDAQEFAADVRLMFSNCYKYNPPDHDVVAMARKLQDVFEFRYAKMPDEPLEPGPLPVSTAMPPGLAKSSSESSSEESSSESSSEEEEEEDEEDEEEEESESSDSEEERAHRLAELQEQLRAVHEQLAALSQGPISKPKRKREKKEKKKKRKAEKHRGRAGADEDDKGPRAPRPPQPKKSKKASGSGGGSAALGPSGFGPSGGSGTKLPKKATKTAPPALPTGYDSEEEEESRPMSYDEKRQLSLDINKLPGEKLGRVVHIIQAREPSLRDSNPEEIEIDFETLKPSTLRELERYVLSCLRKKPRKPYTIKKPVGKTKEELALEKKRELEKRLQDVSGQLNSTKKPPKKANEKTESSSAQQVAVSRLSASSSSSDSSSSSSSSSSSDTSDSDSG
Sequence of Protein cereblon/Bromodomain-containing protein 2 (Homo sapiens) (Q96SW2 whole entry, looked up, the tested form may be a part): as the sequence (Q96SW2 whole entry partner) above

Row | Ki [1] [nM] | IC50 (MM1.S) [nM] | IC50 (MV4-11) [nM] | Activity [2] | Activity [3] | Ki [4] [nM] | Activity [5] | Activity [6] | IC50 (A549) [nM] | IC50 (HepG2) [nM] | IC50 (HeLa) [nM] | IC50 (MCF7) [nM] | Activity [7] | Activity [8] | SMILES | IC50 (HGC-27) [nM] | Activity (Mus musculus)
1 | 6.62 | 5330 | 536 | inactive | inactive | 29.3 | inactive | inactive |  |  |  |  |  |  | Cc1nnc2n1-c1ccc(-c3cnn(CC(=O)NCCCCC#Cc4cccc5c4CN(C4CCC(=O)NC4=O)C5=O)c3)cc1C(Nc1ccc(Cl)cc1)CC2 (stereo not given) |  | 
2 | 2.24 | 2640 | 593 |  |  | 13.1 |  |  | 8480 | 7560 | 3230 | 4840 |  |  | Cc1nnc2n1-c1ccc(-c3ccc(CNCCCCc4cccc5c4CN(C4CCC(=O)N(C)C4=O)C5=O)cc3)cc1C(Nc1ccc(Cl)cc1)CC2 (stereo not given) | 6000 | 
3 | 5.89 | 156 | 19.9 |  |  | 15.1 |  |  |  |  |  |  | Active | Active | Cc1nnc2n1-c1ccc(-c3ccc(CNCCCCCC#Cc4cccc5c4CN(C4CCC(=O)NC4=O)C5=O)cc3)cc1C(Nc1ccc(Cl)cc1)CC2 (stereo not given) |  | 
4 | 2.26 | 27.3 | 0.76 |  |  | 7.94 |  |  |  |  |  |  | Active | Active | Cc1nnc2n1-c1ccc(-c3ccc(CNCCCCCCCc4cccc5c4CN(C4CCC(=O)NC4=O)C5=O)cc3)cc1C(Nc1ccc(Cl)cc1)CC2 (stereo not given) |  | 
5 | 2.16 | 31.4 | 0.4 |  |  | 6.73 |  |  |  |  |  |  | Active | Active | Cc1nnc2n1-c1ccc(-c3ccc(CNCCCCCCc4cccc5c4CN(C4CCC(=O)NC4=O)C5=O)cc3)cc1C(Nc1ccc(Cl)cc1)CC2 (stereo not given) |  | 
6 |  | 2320 | 270 |  |  |  |  |  |  |  |  |  |  |  | Cc1nnc2n1-c1ccc(-c3cnn(C)c3)cc1[C@H](Nc1ccc(Cl)cc1)CC2 |  | Active
7 | 5.72 | 3370 | 1560 |  |  | 22.2 |  |  |  |  |  |  |  |  | Cc1nnc2n1-c1ccc(-c3ccc(CNCCC#Cc4cccc5c4CN(C4CCC(=O)NC4=O)C5=O)cc3)cc1C(Nc1ccc(Cl)cc1)CC2 (stereo not given) |  | 
8 | 4.96 | 8190 | 2920 | inactive | inactive | 37.8 | inactive | inactive |  |  |  |  |  |  | Cc1nnc2n1-c1ccc(-c3cnn(CC(=O)NCCCC#Cc4cccc5c4CN(C4CCC(=O)NC4=O)C5=O)c3)cc1C(Nc1ccc(Cl)cc1)CC2 (stereo not given) |  | 
